Columns and labels:
PSA = PSA expression in prostate tissue of the experimental animals by quantitative PCR (Example 4); assay type: in vivo; conditions: animals treated as in Example 2
Procedure: In additional experiments following the details of example 2, supra, levels of PSA expression were tested.
Prostate tissue from the experimental animals was subjected to quantitative PCR, using well known methods. The expression of PSA was compared in untreated, and in resveratrol, and trimethoxystilbene treated animals.

[1] = system: BPH (prostate weight/body weight indices); assay: Cure or prevention of testosterone enanthate induced BPH, fortified diets, prostate weight/body weight index at day 29 (Example 2); assay type: in vivo; conditions: testosterone enanthate 25 mg i.m. days 1 and 7, diet with 1 g/kg resveratrol or trimethoxystilbene, 625 mg/kg saw palmetto, or finasteride 10 mg s.c. on 5 days
Procedure: These experiments were designed to determine whether resveratrol and trimethoxystilbene could cure or prevent BPH. Experimental animals received diets that were fortified with one of trans-resveratrol (1 g/kg), trimethoxystilbene (1 g/kg), or saw palmetto (625 mg/kg). An additional group of animals received injections of finasteride fourteen days after the start of the experiment. The animals received one, subcutaneous injection of 10 mg of finasteride in 0.1 ml dimethyl sulfoxide on 5 consecutive days. All animals, except the absolute control group, received injections of testosterone enanthate (25 mg, in 0.1 ml mineral oil). The injections were administered intramuscularly, on days 1 and 7 of the study. The absolute control group received intramuscular injections of 0.1 ml of mineral oil. At day 29, all test animals were weighed, sacrificed and their prostates were dissected free of fat and weighed. Prostate weight/body weight indices were determined for each group.

[2] = system: Normal human prostate endothelial cells (ATCC CRL-11611); assay: Gene expression of normal human prostate cells treated or not treated with resveratrol (Example 3); assay type: cell-based; conditions: resveratrol 50 μM, 48 hours
Procedure: Normal human prostate endothelial cells were obtained from the ATCC (CRL-11611), and were either treated or not treated with resveratrol, at 50 μM, for 48 hours. Gene expression of the cells was compared, via standard methods.

[3] = system: induced BPH (prostate weight/body weight ratio); assay: Testosterone enanthate induced BPH in rats, prostate weight after 29 days of treatment (Example 1); assay type: in vivo; conditions: Sprague Dawley rats, finasteride 10 mg s.c., resveratrol 1 g/kg in diet, saw palmetto 625 mg/kg in diet
Procedure: Sexually mature Sprague Dawley rats were given two, intramuscular injections of testosterone enanthate, at 25 mg. This induced BPH.
Animals were then divided into different groups. A first group of 5 animals received finasteride, via subcutaneous injection at a dose of 10 mg. A second group received 1 g/kg of body weight of resveratrol, mixed into their diet. A third group received saw palmetto, at 625 mg/kg, mixed into their diet. The control group received the vehicle for the active material only with no active ingredient.
Following 29 days of treatment, all animals were sacrificed. Prostates were dissected free of fat, and weighed.
The injection of the testosterone enanthate increased the prostate weight/body weight ratio by about 2-fold.

Structure (SMILES) | level of PSA expression relative to that of the controls (PSA) | prostates (weight) compared with controls [1] | share of the 376 genes known to be involved with apoptosis showing significant down regulation following treatment [2] | effect on testosterone enanthate induced BPH (increased prostate weight/body weight ratio) [3]
COc1ccc(/C=C/c2cc(OC)cc(OC)c2)cc1 [trimethoxystilbene] | about ⅓ | indistinguishable from controls | – | –
Oc1ccc(/C=C/c2cc(O)cc(O)c2)cc1 [resveratrol, trans-3,5,4′-trihydroxystilbene] | about ⅓ | indistinguishable from controls | about 10% | reversed the induced BPH
CC(C)(C)NC(=O)[C@H]1CC[C@H]2[C@@H]3CC[C@H]4NC(=O)C=C[C@]4(C)[C@H]3CC[C@]12C [finasteride, Finasteride, reference compound] | – | indistinguishable from controls | – | completely reversed the effect

Reference: US20100048577A1, “Method for treating benign prostate hyperplasia using resveratrol” (priority 2008, published 2010)
